Structures can show the parent of a compound that is named as a salt. Where two headings read alike, the source gives them in different places.

By EC50 is commonly meant the concentration at which the effect is half-maximal. One may read the IC50 as the concentration needed to halve the response being measured.

For data set [1], the system named is SUDHL5. Briefly: Induction of caspase-3/7 activity (Assay 4), SUDHL5. The class given is cell-based. As to conditions: SUDHL5 cells. Summed up:
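DLBCL cells treated with compounds for 3 hours at 37° C. Caspase-3/7 activity measured by Caspase-Glo 3/7 luminescence, with medium-only background subtracted.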

For data set [2], the system named is SUDHL10. Description: Induction of caspase-3/7 activity (Assay 4), SUDHL10. The format is cell-based. As to conditions: SUDHL10 cells. In a few lines: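 SUDHL10 DLBCL cells treated with compounds for 3 hours at 37 °C in a humidified incubator. Caspase-3/7 activity read with Caspase-Glo 3/7 luminescent reagent. Medium-only background subtracted from all values.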

In data set [3] the test system is SUDHL5. Description: Antiproliferation assay 7, SUDHL5. The format is cell-based. As to conditions: SUDHL5 cells, CellTiter-Glo, read-out: Antiproli SUDHL5 IC50 (median). Summed up: (§1)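 Luminescent ATP-based viability (CellTiter-Glo) measured after 72 hours of compound treatment at 37° C, alongside a time-zero plate read on the day of plating.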
For data set [4], the system named is SUDHL10. Briefly: Antiproliferation assay 7, SUDHL10. The class given is cell-based. As to conditions: SUDHL10 cells, CellTiter-Glo, read-out: Antiproli SUDHL10 IC50 (median). The protocol:
Assessment of the Anti-Proliferative Effect of Compounds in Different Cell Lines
The impact of compounds on the proliferation of different cell lines was assessed using the CellTiter-Glo® Luminescent Cell Viability reagent from Promega (G7573).
In parallel, cells were plated in a reference (day 0) plate for time zero determination.
Rim wells were excluded. The cells were incubated for 72 hours in a humidified incubator at 37° C. The day 0 plate was measured by adding 30 μL/well of CTG solution (CellTiter-Glo® Luminescent Cell Viability reagent, Promega G7573) to time zero wells in the reference plate followed by a 10 minutes incubation and luminescence reading at 0.1 ms. using the PHERAstar FS microplate reader (BMG Labtech).
After 72 hours incubation, the treated plates were measured in the same way as the day 0 plate mentioned above.

Data set [5] concerns SUDHL5. Description: Induction of cytotoxicity (Assay 6), SUDHL5.
In data set [6] the test system is SUDHL10. Description: Induction of cytotoxicity (Assay 6), SUDHL10.
Another data set concerns MV-4-11. Description: Antiproliferation assay 7, MV-4-11. The format is cell-based. As to conditions: Homo sapiens, MV4-11, 72 h, MV-4-11 cells, CellTiter-Glo, read-out: Antiproli MV-4-11 IC50 median. In a few lines:
as §1
A general note: Cellular ATP, detected with luciferase, serves as a proxy for viable cell number.

A further data set relates to AMO-1. Briefly: Antiproliferation assay 7, AMO-1. The class given is cell-based. As to conditions: AMO-1 cells, CellTiter-Glo, read-out: Antiproli AMO-1 IC50 median. In a few lines:
as §1

A further data set concerns the target BCL-XL (Homo sapiens (Human), UniProt Q07817). Description: Protein-protein interaction assay BCL-XL/Bad BH3 peptide (BCL-XL Assay, TR-FRET). As to conditions: read-out: BCL-XL Assay IC50 (median). The class given is binding. Here is the method:
Assay 2 Protein-Protein Interaction Assay: BCL-XL/Bad BH3 Peptide (BCL-XL Assay)
The dose-dependent inhibition by the compounds described in this invention of the interaction between BCL-XL and the BH3 domain of Bad (both human) was determined using a steady state binding competition assay with time-resolved fluorescence energy transfer (TR-FRET) readout.
For that, 100-fold concentrated DMSO solutions were prepared by serial dilutions (1:3.4) of a 2 mM stock solution in a clear, 384-well microtiter plate (Greiner Bio-One, Frickenhausen, Germany). From there, 50 nl were transferred in a dark test plate (Greiner Bio-One, Frickenhausen, Germany). […] This was followed by a 10-minute incubation step at 22° C. for pre-equilibration of the putative complex between His-BCL-XL and the compounds.
The mixture was incubated in the dark for one hour at 22° C. and then overnight at 4° C. The formation of BCL-XL/Bad complexes was determined by measuring the resonance energy transfer of the anti-His- Eu-cryptate antibody to the streptavidin-XL665 present in the reaction.
(§2) The resulting data (ratio) were normalized, taking 0% inhibition as the mean value of control measurements (usually 32 data points) where all reagents were included. In this case 50 nl DMSO were used instead of compounds. […] IC50 values were determined by regression analysis based on a 4 parameter equation (minimum, maximum, IC50, Hill; Y=Max+(Min−Max)/(1+(X/IC50)^Hill) using the Screener Software (Genedata).
On the technique in general: In TR-FRET formats the signal depends on donor and acceptor labels being close together.

The target of the next data set is BCL-2 (Homo sapiens (Human), UniProt P10415). Briefly: Protein-protein interaction assay BCL-2/Bad BH3 peptide (BCL-2 Assay, TR-FRET). As to conditions: read-out: BCL-2 Assay IC50 (median). The class given is binding. Here is the method:
The dose-dependent inhibition by the compounds described in this invention of the interaction between BCL-2 and the BH3 domain of Bad (both human) was determined using a steady state binding competition assay with time-resolved fluorescence energy transfer (TR-FRET) readout.
For that, 100-fold concentrated DMSO solutions were prepared by serial dilutions (1:3.4) of a 2 mM stock solution in a clear, 384-well microtiter plate (Greiner Bio-One, Frickenhausen, Germany). From there, 50 nl were transferred in a dark test plate (Greiner Bio-One, Frickenhausen, Germany). […] This was followed by a 10-minute incubation step at 22° C. for pre-equilibration of the putative complex between His-BCL-2 and the compounds.
(§3) The mixture was incubated in the dark for one hour at 22° C. and then overnight at 4° C.
as §2

A further data set concerns HMC-1-8. Description: Antiproliferation assay 7, HMC-1-8. The format is cell-based. As to conditions: HMC-1-8 cells, CellTiter-Glo, read-out: Antiproli HMC-1-8 IC50 median. In a few lines:
as §1

Another data set addresses MCL-1 (Homo sapiens (Human), UniProt Q07820, K194A/K197A/R201A). Briefly: Protein-protein interaction assay MCL-1/Noxa BH3 peptide (MCL-1 Assay, TR-FRET). The format is binding. As to conditions: read-out: MCL-1 Assay IC50 (median). Here is the method:
The dose-dependent inhibition by the compounds described in this invention of the interaction between MCL-1 and the BH3 domain of Noxa (both human) was determined using a steady state binding competition assay with time-resolved fluorescence energy transfer (TR-FRET) readout. […] The MBP-MCL-1 was purchased from Beryllium (Bedford, Mass., USA). The expression and purification of this protein construct has been described elsewhere (DOI:10.1371/journal.pone.0125010). The Noxa BH3-derived peptide can be obtained from e.g. Biosyntan (Berlin, Germany).
For that, 100-fold concentrated DMSO solutions were prepared by serial dilutions (1:3.4) of a 2 mM stock solution in a clear, 384-well microtiter plate (Greiner Bio-One, Frickenhausen, Germany). From there, 50 nl were transferred in a dark test plate (Greiner Bio-One, Frickenhausen, Germany). […] This was followed by a 10-minute incubation step at 22° C. for pre-equilibration of the putative complex between MBP-MCL-1 and the compounds.
as §3, §2

Setting [7] is: Homo sapiens, SU-DHL-5, 3 h, Caspase-Glo 3/7, read-out: Caspase SUDHL5 EC50 (median).
The mark [8] stands for this setting: Homo sapiens, SU-DHL10, 3 h, Caspase-Glo 3/7, read-out: Caspase SUDHL10 EC50 (median).
[9] abbreviates: Homo sapiens, SU-DHL-5, 5 h, read-out: Cytotox SUDHL5 IC50 (median), SUDHL5 cells, 5 hours, CellTiter-Glo.
The mark [10] stands for this setting: 3 hours, Caspase-Glo 3/7, read-out: Caspase SUDHL5 EC50 (median).
The mark [11] stands for this setting: 3 hours, Caspase-Glo 3/7, read-out: Caspase SUDHL10 EC50 (median).
[12] abbreviates: read-out: Cytotox SUDHL5 IC50 (median), SUDHL5 cells, 5 hours, CellTiter-Glo.
Setting [13] is: read-out: Cytotox SUDHL10 IC50 (median), SUDHL10 cells, 5 hours, CellTiter-Glo.
Where [14] appears, read: Homo sapiens, SU-DHL10, 5 h, read-out: Cytotox SUDHL10 IC50 (median), SUDHL10 cells, 5 hours, CellTiter-Glo.

Chain of BCL-2 (P10415 other isoform, or with tags, fused parts or gaps): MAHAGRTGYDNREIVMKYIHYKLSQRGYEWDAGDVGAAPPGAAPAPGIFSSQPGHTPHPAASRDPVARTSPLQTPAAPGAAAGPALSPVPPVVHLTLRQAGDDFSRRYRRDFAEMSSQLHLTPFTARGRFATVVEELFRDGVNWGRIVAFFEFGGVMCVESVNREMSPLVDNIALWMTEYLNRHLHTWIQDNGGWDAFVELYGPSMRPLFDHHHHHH
Chain of BCL-XL (Q07817 other isoform, or with tags, fused parts or gaps): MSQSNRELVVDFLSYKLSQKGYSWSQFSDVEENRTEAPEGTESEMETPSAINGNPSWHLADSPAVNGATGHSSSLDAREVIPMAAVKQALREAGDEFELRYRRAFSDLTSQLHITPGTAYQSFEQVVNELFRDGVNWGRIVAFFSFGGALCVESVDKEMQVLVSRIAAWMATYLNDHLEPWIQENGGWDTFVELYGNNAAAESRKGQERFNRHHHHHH
Chain of MCL-1 (Q07820 whole entry K194A/K197A/R201A, looked up, the tested form may be a part): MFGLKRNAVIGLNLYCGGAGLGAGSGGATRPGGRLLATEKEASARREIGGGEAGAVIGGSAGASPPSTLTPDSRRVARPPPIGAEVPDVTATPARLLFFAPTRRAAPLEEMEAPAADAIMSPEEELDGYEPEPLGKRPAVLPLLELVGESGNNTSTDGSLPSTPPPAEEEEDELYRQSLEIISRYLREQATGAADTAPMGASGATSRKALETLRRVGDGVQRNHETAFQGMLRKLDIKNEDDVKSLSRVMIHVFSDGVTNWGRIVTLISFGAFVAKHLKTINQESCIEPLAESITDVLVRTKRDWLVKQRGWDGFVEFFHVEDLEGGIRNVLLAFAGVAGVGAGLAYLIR

For the compound `Cc1nn(C)c2c1-c1c(Cl)ccc3c(CCCOc4cccc5ccccc45)c(C(=O)O)n(c13)C/C=C\COC2` (racemic) [Example 1, (rac)-(11Z)-4-chloro-1,3-dimethyl-7-[3-(naphthalen-1-yloxy)propyl]-1,10,13,15-tetrahydropyrazolo[4′,3′:9,10][1,6]oxazacycloundecino[8,7,6-hi]indole-8-carboxylic Acid], the figures for the concentration giving a half-maximal response (EC50) in the data set with SUDHL5 [1] (setting [7]) and in the data set on SUDHL10 [2] (setting [8]) were 2900 nM and 5500 nM, respectively. Besides, the half-maximal inhibitory concentration (IC50) with SUDHL5 [3] (Homo sapiens, SU-DHL-5, 72 h) is 5700 nM; in the data set on SUDHL10 [4] (Homo sapiens, SU-DHL10, 72 h) it was 5700 nM; in the data set on SUDHL5 [5] (setting [9]) it was 2900 nM.
With `Cc1nn(C)c2c1-c1c(Cl)ccc3c(CCCOc4cccc5ccccc45)c(C(=O)O)n(c13)CCCCOC2` (single isomer, unassigned; enantiomer 2) [Example 4, 4-chloro-1,3-dimethyl-7-[3-(naphthalen-1-yloxy)propyl]-1,10,11,12,13,15-hexahydropyrazolo[4′,3′:9,10][1,6]oxazacycloundecino[8,7,6-hi]indole-8-carboxylic Acid (Enantiomer 2)], the EC50 in the data set with SUDHL5 [1] (setting [10]) is more than 28000 nM; in the data set with SUDHL10 [2] (setting [11]), more than 33000 nM. The IC50 in the data set with SUDHL5 [3] (72 hours) was 13000 nM; in the data set on SUDHL10 [4] (72 hours), 12000 nM; in the data set with SUDHL5 [5] (setting [12]) it was 26000 nM; with SUDHL10 [6] (setting [13]) it was more than 33000 nM.
For `Cc1c2c(nn1C)COCCCCn1c(C(=O)O)c(CCCOc3cccc4cc(F)ccc34)c3ccc(Cl)c-2c31` (racemic) [Example 14, (rac)-4-chloro-7-{3-[(6-fluoronaphthalen-1-yl)oxy]propyl}-2,3-dimethyl-2,10,11,12,13,15-hexahydropyrazolo[4′,3′:9,10][1,6]oxazacycloundecino[8,7,6-hi]indole-8-carboxylic Acid], the EC50 was 250 nM in the data set on SUDHL5 [1] (setting [7]) and 410 nM with SUDHL10 [2] (setting [8]). In addition, the IC50 with SUDHL5 [3] (Homo sapiens, SU-DHL-5, 72 h) amounted to 510 nM; in the data set with SUDHL10 [4] (Homo sapiens, SU-DHL10, 72 h), 420 nM; in the data set on MV-4-11, 1230 nM; with AMO-1 (Homo sapiens, AMO1, 72 h), 737 nM; with SUDHL5 [5] (setting [9]) it was 390 nM; with SUDHL10 [6] (setting [14]), 610 nM.
On to `CCc1c2c(nn1C)CN(C)CCCCn1c(C(=O)O)c(CCCOc3cccc4cc(F)ccc34)c3ccc(Cl)c-2c31` (racemic) [Example 5, (rac)-4-chloro-3-ethyl-7-{3-[(6-fluoronaphthalen-1-yl)oxy]propyl}-2,14-dimethyl-10,11,12,13,14,15-hexahydro-2H-pyrazolo[3′,4′:8,9][1,6]diazacycloundecino[10,11,1-hi]indole-8-carboxylic Acid], for which the EC50 in the data set on SUDHL5 [1] (setting [7]) was 270 nM; in the data set on SUDHL10 [2] (setting [8]), 610 nM. Also, the IC50 in the data set on SUDHL5 [3] (Homo sapiens, SU-DHL-5, 72 h) came to 330 nM; in the data set with SUDHL10 [4] (Homo sapiens, SU-DHL10, 72 h), 280 nM; in the data set on MV-4-11, 701 nM; in the data set with AMO-1 (Homo sapiens, AMO1, 72 h) it was 611 nM; in the data set with SUDHL5 [5] (setting [9]), 290 nM; in the data set on SUDHL10 [6] (setting [14]), 530 nM.
Regarding `CCc1c2c(nn1C)N(C)CCCCCn1c(C(=O)O)c(CCCOc3cccc4cc(F)ccc34)c3ccc(Cl)c-2c31` (single isomer, unassigned; enantiomer 2) [Example 79, 4-chloro-3-ethyl-7-{3-[(6-fluoronaphthalen-1-yl)oxy]propyl}-2,15-dimethyl-10,11,12,13,14,15-hexahydro-2H-pyrazolo[4′,3′:4,5][1,6]diazacycloundecino[3,2,1-hi]indole-8-carboxylic acid N-ethylethanamine Salt—Enantiomer 2], the concentration for half-maximal inhibition (IC50) is more than 20000 nM on BCL-XL; more than 20000 nM on BCL-2; 3800 nM in the data set on SUDHL5 [3] (72 hours); 7400 nM with AMO-1 (72 hours); 14000 nM in the data set on HMC-1-8 (72 hours); 2200 nM in the data set on SUDHL5 [5] (setting [12]). The IC50 in the data set on SUDHL10 [6] (setting [13]) was found to be 5100 nM. The EC50 with SUDHL5 [1] (setting [10]) worked out at 2800 nM; in the data set with SUDHL10 [2] (setting [11]), 5400 nM.
For `Cc1c2c(nn1C)CN(C)CCCCn1c(C(=O)O)c(CCCOc3cccc4cc(F)ccc34)c3ccc(Cl)c-2c31` (racemic) [Example 30, (rac)-4-chloro-7-{3-[(6-fluoronaphthalen-1-yl)oxy]propyl}-2,3,14-trimethyl-10,11,12,13,14,15-hexahydro-2H-pyrazolo[3′,4′:8,9][1,6]diazacycloundecino[10,11,1-hi]indole-8-carboxylic Acid], the 50% inhibitory concentration (IC50) was found to be 0.92 nM on MCL-1; 170 nM in the data set on SUDHL5 [3] (Homo sapiens, SU-DHL-5, 72 h); 150 nM with SUDHL10 [4] (Homo sapiens, SU-DHL10, 72 h); 293 nM with MV-4-11; 415 nM in the data set on AMO-1 (Homo sapiens, AMO1, 72 h); 1560 nM in the data set with HMC-1-8 (72 h). In addition, the IC50 came to 210 nM in the data set on SUDHL5 [5] (setting [9]) and 340 nM in the data set with SUDHL10 [6] (setting [14]). In addition, the figures for the half-maximal effective concentration (EC50) in the data set on SUDHL5 [1] (setting [7]) and in the data set with SUDHL10 [2] (setting [8]) were 180 nM and 370 nM, respectively.

These data come from US11447504B2, “Macrocyclic chlorine substituted indole derivatives” (Bayer Aktiengesellschaft, priority 2017, dated 2022).
